Assay results reported in patent US7989451B2, “Tricyclic 1,2,4-triazine oxides and compositions for therapeutic use in cancer treatments” (Auckland Uniservices Limited, priority 2005, dated 2011).
Where a name gives a salt, the structure may show the parent alone.

SMILES	melting point
CN(C)CCNc1nc2cc3c(cc2[n+]([O-])n1)CCC3 [Compound 22, N^1,N^1-Dimethyl-N^2-(1-oxido-7,8-dihydro-6H-indeno[5,6-e][1,2,4]triazin-3-yl)-1,2-ethanediamine]	122 to 124 °C
[O-][n+]1nc(NCCN2CCCCC2)nc2ccc3c(c21)CCC3 [Compound 12, N-[2-(1-Piperidinyl)ethyl]-8,9-dihydro-7H-indeno[5,4-e][1,2,4]triazin-3-amine 1-Oxide]	152 to 155 °C
[O-][n+]1nc(NCCN2CCOCC2)nc2cc3c(cc21)CCC3 [Compound 44, N-[2-(4-Morpholinyl)ethyl]-7,8-dihydro-6H-indeno[5,6-e][1,2,4]triazin-3-amine 1-Oxide]	178 to 179 °C
O=CCCc1nc2cc3c(cc2[n+]([O-])n1)CCC3 [Compound 75, 3-(1-oxido-7,8-dihydro-6H-indeno[5,6-e][1,2,4]triazin-3-yl)propanal]	72 to 74 °C
CC1Cc2cc3nc(CCCN4CCOCC4)n[n+]([O-])c3cc2C1 (stereo not drawn) [Compound 102, 7-Methyl-3-[3-(4-morpholinyl)propyl]-7,8-dihydro-6H-indeno[5,6-e][1,2,4]triazine 1-Oxide]	70 to 71 °C
Nc1nc2cc3c(cc2[n+]([O-])n1)CCC3 [Compound 19, 7,8-Dihydro-6H-indeno[5,6-e][1,2,4]triazin-3-amine 1-Oxide]	270 to 272 °C
CC1Cc2cc3nc(NCCCN4CCOCC4)n[n+]([O-])c3cc2C1 (stereo not drawn) [Compound 98, 7-Methyl-N-[3-(4-morpholinyl)propyl]-7,8-dihydro-6H-indeno[5,6-e][1,2,4]triazin-3-amine 1-Oxide]	138 to 140 °C
CCN(CC)CCNc1nc2cc3c(cc2[n+]([O-])n1)CCC3 [Compound 26, N^1-(1-Oxido-7,8-dihydro-6H-indeno[5,6-e][1,2,4]triazin-3-yl)-N^2,N^2-diethyl-1,2-ethanediamine]	109 to 112 °C
CC1CCCC(C)N1CCNc1nc2cc3c(cc2[n+]([O-])n1)CCC3 (stereo not drawn) [Compound 38, N-[2-(2,6-Dimethyl-1-piperidinyl)ethyl]-7,8-dihydro-6H-indeno[5,6-e][1,2,4]triazin-3-amine 1-Oxide]	173 to 175 °C
COCCCN(C)CCNc1nc2cc3c(cc2[n+]([O-])n1)CCC3 [Compound 32, N^1-(3-Methoxypropyl)-N^1-methyl-N^2-(1-oxido-7,8-dihydro-6H-indeno[5,6-e][1,2,4]triazin-3-yl)-1,2-ethanediamine]	41 to 42 °C
C=CCc1nc2cc3c(cc2[n+]([O-])n1)CC(CO[Si](C)(C)C(C)(C)C)C3 (stereo not drawn)	49 to 52 °C
CC(C)(C)[Si](C)(C)OCC1Cc2cc3nc(N)n[n+]([O-])c3cc2C1 (stereo not drawn)	169 to 171 °C
[O-][n+]1nc(NCCN2CCOCC2)[n+]([O-])c2cc3c(cc21)CCC3 (as salt: hydrochloride) [Compound 45, N-[2-(4-Morpholinyl)ethyl]-7,8-dihydro-6H-indeno[5,6-e][1,2,4]triazin-3-amine 1,4-Dioxide]	184 to 185 °C
[O-][n+]1nc(NCCCN2CCOCC2)nc2cc3c(cc21)CCC3 [Compound 60, N-[3-(4-Morpholinyl)propyl]-7,8-dihydro-6H-indeno[5,6-e][1,2,4]triazin-3-amine 1-Oxide]	139 to 141 °C
CC1Cc2cc3nc(N)n[n+]([O-])c3cc2C1 (stereo not drawn) [Compound 94, 7-Methyl-7,8-dihydro-6H-indeno[5,6-e][1,2,4]triazin-3-amine 1-Oxide]	275 to 277 °C
[O-][n+]1nc(NCCN2CCCOCC2)nc2cc3c(cc21)CCC3 [Compound 48, N-[2-(1,4-Oxazepan-4-yl)ethyl]-7,8-dihydro-6H-indeno[5,6-e][1,2,4]triazin-3-amine 1-Oxide]	119 to 120 °C
C=CCc1nc2cc3c(cc2[n+]([O-])n1)CCC3 [Compound 69, 3-Allyl-7,8-dihydro-6H-indeno[5,6-e][1,2,4]triazine 1-Oxide]	60 to 61 °C
COCCN(C)CCCNc1nc2cc3c(cc2[n+]([O-])n1)CCC3 [Compound 52, N^1-(2-Methoxyethyl)-N^1-methyl-N^3-(1-oxido-7,8-dihydro-6H-indeno[5,6-e][1,2,4]triazin-3-yl)-1,3-propanediamine]	59 to 61 °C
CCc1nc2cc3c(cc2[n+]([O-])n1)CC(CO[Si](C)(C)C(C)(C)C)C3 (stereo not drawn)	63 to 65 °C

Second part, the compound after the results:

melting point	SMILES
271 °C (dec.)	Nc1nc2ccc3c(c2[n+]([O-])n1)CCCC3 [Compound 170, 7,8,9,10-Tetrahydronaphtho[2,1-e][1,2,4]triazin-3-amine 1-Oxide]
293 to 296 °C	Nc1nc2cc3c(cc2[n+]([O-])n1)CCO3 [Compound 204, 7,8-Dihydrofuro[2,3-g][1,2,4]benzotriazin-3-amine 1-Oxide]
200 to 205 °C	CN1CCc2ccc3nc(Cl)n[n+]([O-])c3c2C1 [Compound 263, 3-Chloro-9-methyl-7,8,9,10-tetrahydro[1,2,4]triazino[5,6-h]isoquinoline 1 Oxide]
148 to 151 °C	CN(C)CCNc1n[n+]([O-])c2cc3c(cc2[n+]1[O-])CCCC3 [Compound 178, N^1-(1,4-Dioxido-6,7,8,9-tetrahydronaphtho[2,3-e][1,2,4]triazin-3-yl)-N^2,N^2-dimethyl-1,2-ethanediamine]
230 °C	CCN1Cc2cc3c(cc2C1)[n+]([O-])c(N)n[n+]3[O-] (as salt: hydrochloride) [Compound 250, 7-Ethyl-7,8-dihydro-6H-[1,2,4]triazino[5,6-f]isoindol-3-amine 1,4-Dioxide]
192 to 194 °C	CN(C)CCNc1nc2cc3c(cc2[n+]([O-])n1)OCO3 [Compound 223, N^1,N^1-Dimethyl-N^2-(1-oxido[1,3]dioxolo[4,5-g][1,2,4]benzotriazin-3-yl)-1,2-ethanediamine]
115 to 116 °C	[O-][n+]1nc(NCCCN2CCOCC2)nc2cc3c(cc21)CCCC3 [Compound 179, N-[3-(4-Morpholinyl)propyl]-6,7,8,9-tetrahydronaphtho[2,3-e][1,2,4]triazin-3-amine 1-Oxide]
179 °C (dec.)	CN1CCc2cc3c(cc2C1)nc(Cl)n[n+]3[O-] [Compound 257, 3-Chloro-7-methyl-6,7,8,9-tetrahydro[1,2,4]triazino[6,5-g]isoquinoline 1-Oxide]
182 to 185 °C	[O-][n+]1nc(NCCCN2CCOCC2)[n+]([O-])c2cc3c(cc21)CCCC3 (as salt: hydrochloride) [Compound 180, N-[3-(4-Morpholinyl)propyl]-6,7,8,9-tetrahydronaphtho[2,3-e][1,2,4]triazin-3-amine 1,4-Dioxide]
226 to 229 °C	CN1CCc2ccc3nc(N)n[n+]([O-])c3c2C1 [Compound 262, 9-Methyl-7,8,9,10-tetrahydro[1,2,4]triazino[5,6-h]isoquinolin-3-amine 1-Oxide]
96 to 99 °C	[O-][n+]1nc(I)nc2cc3c(cc21)CC(CCO)C3 (stereo not drawn) [Compound 158, 2-(3-Iodo-1-oxido-7,8-dihydro-6H-indeno[5,6-e][1,2,4]triazin-7-yl)ethanol]
241 to 246 °C	Nc1nc2cc3c(cc2[n+]([O-])n1)OCC3 [Compound 195, 6,7-Dihydrofuro[3,2-g][1,2,4]benzotriazin-3-amine 1-Oxide]
270 to 274 °C	Nc1nc2cc3c(cc2[n+]([O-])n1)CCCC3 [Compound 175, 6,7,8,9-Tetrahydronaphtho[2,3-e][1,2,4]triazin-3-amine 1-Oxide]
151 to 152 °C	[O-][n+]1nc(NCCCN2CCOCC2)nc2cc3c(cc21)OCCC3 [Compound 243, N-[3-(4-Morpholinyl)propyl]-7,8-dihydro-6H-chromeno[6,7-e][1,2,4]triazin-3-amine 1-Oxide]
149 to 152 °C	CN(C)CCNc1nc2cc3c(cc2[n+]([O-])n1)CCCCC3 [Compound 188, N^1,N^1-Dimethyl-N^2-(1-oxido-7,8,9,10-tetrahydro-6H-cyclohepta[g][1,2,4]benzotriazin-3-yl)-1,2-ethanediamine]
99 to 102 °C	CCc1nc2ccc3c(c2[n+]([O-])n1)CN(C)CC3 [Compound 264, 3-Ethyl-9-methyl-7,8,9,10-tetrahydro[1,2,4]triazino[5,6-h]isoquinoline 1 Oxide]
212 to 216 °C	CN(C)C1Cc2cc3nc(N)n[n+]([O-])c3cc2C1 (stereo not drawn) [Compound 111, N^7,N^7-Dimethyl-7,8-dihydro-6H-indeno[5,6-e][1,2,4]triazine-3,7-diamine 1-Oxide]
218 °C	CCN1Cc2cc3nc(N)n[n+]([O-])c3cc2C1 [Compound 249, 7-Ethyl-7,8-dihydro-6H-[1,2,4]triazino[5,6-f]isoindol-3-amine 1-Oxide]
122 to 123 °C	CCc1nc2cc3c(cc2[n+]([O-])n1)CC(CO)C3 (stereo not drawn) [Compound 142, (3-Ethyl-1-oxido-7,8-dihydro-6H-indeno[5,6-e][1,2,4]triazin-7-yl)methanol]
151 to 153 °C	CN(C)CCNc1nc2ccc3c(c2[n+]([O-])n1)CCCC3 [Compound 172, N^1,N^1-Dimethyl-N^2-(1-oxido-7,8,9,10-tetrahydronaphtho[2,1-e][1,2,4]triazin-3-yl)-1,2-ethanediamine]
163 to 165 °C	CN(C)CCNc1nc2cc3c(cc2[n+]([O-])n1)CCO3 [Compound 207, N^1,N^1-Dimethyl-N^2-(1-oxido-7,8-dihydrofuro[2,3-g][1,2,4]benzotriazin-3-yl)-1,2-ethanediamine]
193 to 196 °C	CCNc1nc2cc3c(cc2[n+]([O-])n1)CCN(C)C3 [Compound 258, N-Ethyl-7-methyl-6,7,8,9-tetrahydro[1,2,4]triazino[6,5-g]isoquinolin-3-amine 1-Oxide]
230 to 235 °C	Nc1nc2cc3c(cc2[n+]([O-])n1)CC(CCO)C3 (stereo not drawn) [Compound 157, 2-(3-Amino-1-oxido-7,8-dihydro-6H-indeno[5,6-e][1,2,4]triazin-7-yl)ethanol]
